Laboratory results reported in patent US9132280B2, “Use of fusarochromanone and its derivatives in the diagnosis and treatment of cancer and other diseases” (University of South Carolina, priority 2008, dated 2015).
“Also recorded” adds a separate entry of the source.

Key:
[1] = Experimental physicochemical properties of FC101 (pKa, structural counts; Table 1)
[2] = test system: normal cardiac fibroblasts; assay: Phototoxic effect under blue light exposure during time-lapse imaging, normal cells; assay type: cell-based, rat
Protocol: (§1) Cells growing in the Matra-Tek dishes were maintained in an environmental chamber (37° C. and 5% CO2 atmosphere) mounted on the stage of a Zeiss inverted fluorescence microscope equipped with a CARV spinning disk confocal attachment. B16 cells were imaged using a Zeiss 63× oil NA=1.4 apochromatic objective, which gave an image field of 7265.15 μm^2. Cardiac Fibroblasts were imaged using a Zeiss 40× oil 1.0 NA apochromatic objective, which gave an image field of 18,006.85 μm^2. The images were captured using a CCD camera (Hamamatsu ORCA-ER) controlled by Kinetic Imaging Image Acquisition Software (AQM Advance-6) software. All images were recorded at a constant exposure (385 ms) using a DAPI (360/460) filter set, which isolates the natural fluorescence of the compound.
(§2) The cells were maintained in 1 ml of tissue culture medium and allowed equilibrate in the environmental chamber, before imaging of the selected group of cells was initiated. […] The rate of entry of the drug into the cells was determined by high-speed image collection (1 sec interval, 60 exposures per min). The equilibrium-concentration uptake of the drug was determined by slow-speed time-lapse imaging (10 sec intervals, 6 exposures per min) collected for a minimum of 30 minutes. In all experiments, images were recorded prior to addition of the drug to provide a negative control of any auto-fluorescence present in the cells. […]

B16 melanoma cells [3] = assay: Phototoxic effect under blue light exposure during time-lapse imaging, transformed cells; assay type: cell-based, mouse; settings: transformed cells loaded with FC101
Protocol: as §1, §2

[4] = Experimental Log P, shaken-flask method (n-octanol/water adjusted to pH 10); assay type: physicochemical
Protocol: The shaken-flask method was also used to determine the experimental non-ionized partition coefficient for FC101. The same procedure used in the experimental determination of Log D for FC101 was used to determine the Log P with the exception that double-distilled water adjusted to pH 10 with 1 mM NaOH was used instead of the phosphate buffer. The log P was calculated using: Log10 P=Log10([FC101uncharged]oct/[FC101uncharged]wat) Imaging of Drug Uptake: […]

[5] = Experimental Log D, shaken-flask method (n-octanol/phosphate buffer); assay type: physicochemical; settings: pH 7.6
Protocol: The shaken-flask method with n-octanol/phosphate buffer was used to determine the experimental ionized partition coefficient for FC101^10. Briefly, 50 ml each of n-octanol and 0.1 M phosphate buffer (at appropriate pH) were added to a 125 ml flask and placed on a mechanical shaker at room temperature for 24 hours to ensure saturation of each phase. The phases were then separated by centrifugation (Damon IEC HN-SII) at 2000 rpm for 30 min. After separation, aliquots (1 ml) were taken from each phase and were placed in separate vials. A small sample (45.5 μl) of a stock solution of 10 mM FC101 in water was added to the aqueous phase. […] The n-octanol was separated from the phosphate buffer and the absorbance at 385 nm (Shimadzu UV 1601) was then used to determine the concentration of FC101 in each phase. The partition coefficient was calculated using the following equation: Log10 D=([FC101charged+uncharged]oct[FC101charged+uncharged]buf) Experimental Log P for FC101
The shaken-flask method with n-octanol/phosphate buffer was used to determine the experimental ionized partition coefficient for FC101^10. […] The n-octanol was separated from the phosphate buffer and the absorbance at 385 nm (Shimadzu UV 1601) was then used to determine the concentration of FC101 in each phase. […]

B16 melanoma cells [6] = assay: Confocal time-lapse fluorescence imaging of drug uptake (IOD) in B16 melanoma cells; assay type: cell-based, mouse; settings: 400 nM
Protocol: as §1, §2

B-16 melanoma cells = assay: Cell growth inhibition, MTT assay; assay type: cell-based, mouse; settings: B-16 melanoma cells compared to normal cardiac fibroblasts
Protocol: Cells were plated in a 96 well format containing 100 μl per well of appropriate media at a density of 2.5×10^4 cells/ml, and incubated at 37° C. with 5% CO2. After a 24 h attachment period, the cells were treated in sextuplicate with 100 μl per well of varying concentrations (0 to 10 μM) of FC101. Final volume in each well was 200 μl. Cell proliferation was then determined by the MTT assay after 48 hr incubation period^8. Briefly, 20 μl of a 5 mg/ml solution of MTT (dissolved in HBS) was added to each well. After 4.5 hr incubation at 37° C., the media were then removed and the insoluble mitochondrial-converted dye was solubilized in 100 μl of DMSO. The plates were placed on a shaker for 30 min to ensure that all of the dye was in solution and then read on a (Spectra Max plus 384, Molecular Devices) microplate reader at […]. The background absorbency at 640 nM was subtracted from the 570 nM value before calculating the GI50.

[7] = test system: normal cardiac fibroblasts; assay: Confocal time-lapse fluorescence imaging of drug uptake (IOD) in normal cardiac fibroblasts; assay type: cell-based, rat; settings: 400 nM
Protocol: as §1, §2
FC101 is a naturally fluorescent molecule and its movements, accumulation and distribution within living cells can be followed and analyzed in real-time or by time-lapse imaging. Cellular uptake of the drug was analyzed using the integrated morphometry subroutine of MetaMorph 6.1 (MDS Analytical Technologies). […] The drug fluorescence in the cytoplasm of the cells was thresholded as a region of interest and the integrated optical density (IOD) of the drug fluorescence was measured for all cells in the field at each time point. Values of image brightness, contrast and gamma function were kept constant for all image measurements of drug fluorescence. […]

What does the source list for CC1(C)CC(=O)c2c(ccc(C(=O)CC(N)CO)c2N)O1 (racemic) [FC101, 5-amino-2,2-dimethyl-6-[3′-(R,S)amino-4′-hydroxy-butan-1-one]-2,3-dihydro-4H-1-benzopyran-4-one]?
Hydrogen Bond Acceptors [1]: 6; Hydrogen Bond Donors [1]: 5; pKa ([1]; amino group on C-3 of the side chain): 8.6; Cell death (phototoxic effect) on blue light exposure [2]: do not exhibit this effect; also recorded: ineffectiveness; Cell death (phototoxic effect) on blue light exposure (B16 melanoma cells [3]): undergo cell death; Log10 P [4]: 1.62; Log10 D7.6 [5]: 0.38; Uptake of FC101 (intracellular fluorescence) (B16 melanoma cells [6]; 10 sec after addition): immediately entered the cells; Uptake of FC101 (intracellular fluorescence) (B16 melanoma cells [6]; 20 min after addition): stable with no decrease in intracellular drug fluorescence; Inhibition of cell growth, tumorigenic versus normal cells (B-16 melanoma cells): preferential inhibition of tumorigenic B-16 melanoma cells; Uptake of FC101 (intracellular fluorescence) ([7]; 10 sec after addition (less than a minute)): No incorporation; also recorded: no uptake of FC101; Uptake of FC101 (intracellular fluorescence) ([7]; 4 min after addition): minimal increase in cytoplasmic fluorescence; Uptake of FC101 (intracellular fluorescence) ([7]; 20 min after addition): significant increase in intracellular fluorescence
